In patent US20100068150A1, “Selective Caspase Inhibitors” (The Board of Trustees of the Leland Stanford Junior …, priority 2006, published 2010):

Legend:
Type in all cases: biochemical
Caspase-7 = biological target: T1, Caspase-7 (Homo sapiens, UniProt P55210); experiment: Kinetic compound screening, progress curve method, caspase-7; details: for Ki(app) Caspase-7: Table III, Ki(app) = Kass or Kobs/I, 5 nM active caspase-7; for Caspase-7 Ki (app): Table IV
T1 sequence (P55210 1-303): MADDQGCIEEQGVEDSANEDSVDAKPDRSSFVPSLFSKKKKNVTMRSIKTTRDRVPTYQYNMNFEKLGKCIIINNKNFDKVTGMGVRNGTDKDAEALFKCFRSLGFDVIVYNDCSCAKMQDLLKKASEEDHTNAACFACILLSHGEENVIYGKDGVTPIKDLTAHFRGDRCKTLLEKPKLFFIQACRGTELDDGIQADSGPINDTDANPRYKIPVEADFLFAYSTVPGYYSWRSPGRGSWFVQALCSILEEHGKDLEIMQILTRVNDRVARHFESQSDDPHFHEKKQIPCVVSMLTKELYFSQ
How it was run: (§1)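 Progress-curve method under pseudo-first-order kinetics, giving Ki(app) (kobs/I, M^−1s^−1), in caspase reaction buffer. Active enzyme at 5 nM (caspase-3, -7), 10 nM (caspase-8) or 50 nM (caspase-9), preactivated at 37 °C for 5, 10 or 40 min respectively. Some caspase-9 compounds also run with 1 M sodium citrate replacing sucrose.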

Caspase-8 = Caspase-8 (Homo sapiens, UniProt Q14790); experiment: Kinetic compound screening, progress curve method, caspase-8; details: for Ki(app) Caspase-8: Table III, Ki(app) = Kass or Kobs/I, 10 nM active caspase-8; for Caspase-8 Ki (app): Table IV, NI = no inhibition at concentrations tested
Chain of Caspase-8 (Q14790 217-479): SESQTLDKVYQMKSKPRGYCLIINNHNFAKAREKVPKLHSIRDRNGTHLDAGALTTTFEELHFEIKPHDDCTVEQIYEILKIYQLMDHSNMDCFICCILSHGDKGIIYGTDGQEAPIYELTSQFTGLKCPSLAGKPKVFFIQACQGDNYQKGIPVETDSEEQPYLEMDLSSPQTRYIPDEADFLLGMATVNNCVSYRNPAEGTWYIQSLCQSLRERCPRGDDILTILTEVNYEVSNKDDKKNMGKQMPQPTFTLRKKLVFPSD
How it was run: as §1

Caspase-3 = biological target: T2, Caspase-3 (Homo sapiens, UniProt P42574); experiment: Kinetic compound screening, progress curve method, caspase-3; details: for Ki(app) Caspase-3: Table III, Ki(app) = Kass or Kobs/I, 5 nM active caspase-3; for Caspase-3 Ki(app): Table IV
T2 sequence (P42574 29-175 limits assumed): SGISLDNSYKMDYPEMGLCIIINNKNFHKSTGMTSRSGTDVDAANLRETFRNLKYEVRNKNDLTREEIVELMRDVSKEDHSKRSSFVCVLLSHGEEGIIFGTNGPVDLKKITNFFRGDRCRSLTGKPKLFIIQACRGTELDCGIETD
T2 sequence (P42574 176-277 limits assumed): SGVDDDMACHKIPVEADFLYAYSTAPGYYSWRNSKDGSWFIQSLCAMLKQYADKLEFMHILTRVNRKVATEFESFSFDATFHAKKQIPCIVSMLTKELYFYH
How it was run: as §1

Row | Ki(app) Caspase-7 (Caspase-7) | Caspase-7 Ki (app) (Caspase-7) | Ki(app) Caspase-8 (Caspase-8) | Caspase-8 Ki (app) (Caspase-8) | Ki(app) Caspase-3 (Caspase-3) | Caspase-3 Ki(app) (Caspase-3) | inhibition of caspase-8, in words (Caspase-8) | Compound
1 | 288,213 M^−1s^−1 | 288,213 M-1s-1 | 164,052 M^−1s^−1 | 164,052 M-1s-1 | 577,913 M^−1s^−1 | 577,913 M-1s-1 |  | Bio-EVD-AOMK [KMB01, reference compound]
2 | 1,529,040 M^−1s^−1 | 1,529,040 M-1s-1 | 1,077,839 M^−1s^−1 | 1,077,839 M-1s-1 | 10,922,261 M^−1s^−1 | 10,922,261 M-1s-1 | strong activity towards caspase-8 | Cc1cccc(C)c1C(=O)OCC(=O)[C@H](CC(=O)O)NC(=O)[C@@H](NC(=O)[C@H](CCC(=O)O)NC(=O)[C@H](CC(=O)O)NC(=O)Cc1ccc(O)c([N+](=O)[O-])c1)C(C)C [AB09, Np-D-E- V-D-DMBA]

Row | Compound | Ki(app) Caspase-7 (Caspase-7) | Caspase-7 Ki (app) (Caspase-7) | Ki(app) Caspase-8 (Caspase-8) | Caspase-8 Ki (app) (Caspase-8) | Ki(app) Caspase-3 (Caspase-3) | Caspase-3 Ki(app) (Caspase-3) | inhibition of caspase-8, in words (Caspase-8)
3 | Cc1cccc(C)c1C(=O)OCC(=O)[C@H](CC(=O)O)NC(=O)[C@@H](NC(=O)[C@H](Cc1ccncc1)NC(=O)[C@H](CC(=O)O)NC(=O)Cc1ccc(O)c([N+](=O)[O-])c1)C(C)C [AB06, Np-D-3-V-D-DMBA] | 968,070 M^−1s^−1 | 968,070 M-1s-1 | 32,909 M^−1s^−1 | 32,909 M-1s-1 | 7,456,511 M^−1s^−1 | 7,456,511 M-1s-1 | 
